Data published in US9624209B2, “Substituted phenylureas and phenylamides as vanilloid receptor ligands” (Gruenenthal GmbH, priority 2009, dated 2017).

Biological target: T1, vanilloid receptor 1 (VR1/TRPV1 receptor) (Homo sapiens, UniProt Q8NER1)
T1 construct: expressed in transfected cells; host or cells: CHO K1 cells (ECACC), stably transfected
Assay: VR1/TRPV1 receptor affinity, capsaicin stimulus (human)
Type: cell-based, human being
Parameters: key to (f) Ki (human being) [nM] Cap: result in words: AG=agonist; pAG=partial agonist; NE=no effect
Conditions: for (f) Ki (human being) [nM] Cap: inhibition (as a percentage): @ 5 μM; for (f) Ki (human being) [nM] Cap: inhibition (as a percentage) / (f) Ki (human being) [nM] Cap: result in words: Tables 8-12; for Ki: Tables 8-12, read-out: (f) Ki (human being) [nM] Cap

T1 sequence (Q8NER1 whole entry): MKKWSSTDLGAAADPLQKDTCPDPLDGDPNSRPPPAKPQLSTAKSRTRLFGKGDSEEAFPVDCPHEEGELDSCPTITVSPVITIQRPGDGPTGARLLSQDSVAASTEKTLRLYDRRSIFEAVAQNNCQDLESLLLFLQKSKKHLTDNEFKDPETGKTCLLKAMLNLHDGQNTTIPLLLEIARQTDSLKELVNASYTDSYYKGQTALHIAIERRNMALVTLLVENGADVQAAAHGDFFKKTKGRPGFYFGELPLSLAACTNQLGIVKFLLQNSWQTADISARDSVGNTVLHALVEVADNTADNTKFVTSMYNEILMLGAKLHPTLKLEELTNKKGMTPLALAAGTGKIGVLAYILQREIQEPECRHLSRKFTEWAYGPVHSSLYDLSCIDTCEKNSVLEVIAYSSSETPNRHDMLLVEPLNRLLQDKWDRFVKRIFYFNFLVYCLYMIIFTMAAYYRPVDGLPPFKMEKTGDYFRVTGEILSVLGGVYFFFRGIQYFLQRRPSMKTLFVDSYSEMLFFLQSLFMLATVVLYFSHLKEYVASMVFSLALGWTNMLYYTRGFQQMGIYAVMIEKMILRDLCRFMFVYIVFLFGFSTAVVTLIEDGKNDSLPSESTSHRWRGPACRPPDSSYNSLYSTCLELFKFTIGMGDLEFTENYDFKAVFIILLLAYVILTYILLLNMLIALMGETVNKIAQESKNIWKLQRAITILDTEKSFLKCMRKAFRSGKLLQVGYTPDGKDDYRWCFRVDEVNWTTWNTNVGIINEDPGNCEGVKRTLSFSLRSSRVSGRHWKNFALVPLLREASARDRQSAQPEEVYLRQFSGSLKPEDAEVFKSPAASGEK

“1-[[2-(3,4-Difluoro-phenyl)-5-(trifluoromethyl)-2H-pyrazol-3-yl]-methyl]-3-[3-fluoro-4-(2-hydroxy-ethoxy-methyl)-phenyl]-urea [Example A132]” was tested, and the “(f) Ki (human being) [nM] Cap: inhibition (as a percentage)” value (from here on “(f) Ki … inhibition (as a percentage)”) was 48% @ 5 μM.

“1-[[5-tert-Butyl-2-(3-chlorophenyl)-2H-pyrazol-3-yl]-methyl]-3-[3-fluoro-4-(hydroxymethyl)-phenyl]-urea [Example A55]” showed a Ki of 3 nM.

With “1-[[5-tert-Butyl-2-(3-fluorophenyl)-2H-pyrazol-3-yl]-methyl]-3-[3-fluoro-4-(3-hydroxy-azetidin-1-yl)-phenyl]-urea [Example C8]” the “(f) Ki … inhibition (as a percentage)” value was 53% @ 5 μM.

“2-Chloro-4-[[[2-(3-chlorophenyl)-5-(trifluoromethyl)-2H-pyrazol-3-yl]-methyl-carbamoyl]amino]-benzoic acid [Example E54]” was tested, and the “(f) Ki … inhibition (as a percentage)” value was 20% @ 5 μM.

With “4-[1-[[2-(3-Chlorophenyl)-5-(trifluoromethyl)-2H-pyrazol-3-yl]-methyl-carbamoyl]-ethyl]-2-fluoro-N-(oxetan-3-yl)-benzamide [Example E19]” the Ki was 41 nM.

For “4-[1-[[2-(3-Chlorophenyl)-5-(trifluoromethyl)-2H-pyrazol-3-yl]-methyl-carbamoyl]-ethyl]-2-fluoro-N-[4-(trifluoromethyl)-phenyl]-benzamide [Example E48]”, the Ki was 27 nM.

For “4-[1-[[2-(3-Chlorophenyl)-5-(trifluoromethyl)-2H-pyrazol-3-yl]-methyl-carbamoyl]-ethyl]-2-fluoro-N-methyl-benzamide [Example E11]”, the Ki was 11 nM.

“4-[1-[[2-(3-Chlorophenyl)-5-(trifluoromethyl)-2H-pyrazol-3-yl]-methyl-carbamoyl]-ethyl]-2-fluoro-N-thiazol-2-yl-benzamide [Example E52]” showed a Ki of 59 nM.

For “4-[1-[[5-tert-Butyl-2-(3-chloro phenyl)-2H-pyrazol-3-yl]-methyl-carbamoyl]-ethyl]-N-(3-fluorophenyl)-benzamide [Example E40]”, the Ki was 4 nM.

“4-[1-[[5-tert-Butyl-2-(3-chlorophenyl)-2H-pyrazol-3-yl]-methyl-carbamoyl]-ethyl]-2-fluoro-N-[4-(trifluoromethyl)-phenyl]-benzamide [Example E49]” was tested, and the Ki was 3 nM.

Work on “4-[1-[[5-tert-Butyl-2-(3-chlorophenyl)-2H-pyrazol-3-yl]-methyl-carbamoyl]-ethyl]-2-fluoro-N-phenyl-benzamide [Example E29]” yielded a Ki of 5 nM.

Molecule “4-[1-[[5-tert-Butyl-2-(3-chlorophenyl)-2H-pyrazol-3-yl]-methyl-carbamoyl]-ethyl]-N-(4-chlorophenyl)-2-fluoro-benzamide [Example E35]” has a Ki of 2 nM.

“4-[1-[[5-tert-Butyl-2-(3-chlorophenyl)-2H-pyrazol-3-yl]-methyl-carbamoyl]-ethyl]-N-(4-chlorophenyl)-benzamide [Example E34]” gave a Ki of 0.5 nM.

In the case of “4-[1-[[5-tert-Butyl-2-(3-chlorophenyl)-2H-pyrazol-3-yl]-methyl-carbamoyl]-ethyl]-N-(4-fluorophenyl)-benzamide [Example E42]”, the Ki is reported as 1 nM.

“4-[1-[[5-tert-Butyl-2-(3-chlorophenyl)-2H-pyrazol-3-yl]-methyl-carbamoyl]-ethyl]-N-[4-(trifluoromethyl)-phenyl]-benzamide [Example E47]” was tested, and the Ki was 3 nM.

With “4-[1-[[5-tert-Butyl-2-(3-chlorophenyl)-2H-pyrazol-3-yl]-methyl-carbamoyl]-ethyl]-N-phenyl-benzamide [Example E27]” the Ki was 2 nM.

“4-[[[2-(3-Chlorophenyl)-5-(trifluoromethyl)-2H-pyrazol-3-yl]-methyl-carbamoyl]-methyl]-2-fluoro-N-(4-fluorophenyl)-benzamide [Example E38]” showed a Ki of 3 nM.

“4-[[[2-(3-Chlorophenyl)-5-(trifluoromethyl)-2H-pyrazol-3-yl]-methyl-carbamoyl]-methyl]-N-(4-fluorophenyl)-benzamide [Example E36]” gave a Ki of 14 nM.

With “4-[[[2-(3-Chlorophenyl)-5-(trifluoromethyl)-2H-pyrazol-3-yl]-methyl-carbamoyl]-methyl]-N-[4-(trifluoromethyl)-phenyl]-benzamide [Example E51]” the Ki was 49 nM.

“4-[[[2-(3-Chlorophenyl)-5-(trifluoromethyl)-2H-pyrazol-3-yl]-methyl-carbamoyl]-methyl]-N-phenyl-benzamide [Example E26]” was tested, and the Ki was 25 nM.

With “4-[[[5-tert-Butyl-2-(3-chlorophenyl)-2H-pyrazol-3-yl]-methyl-carbamoyl]-methyl]-2-fluoro-N-(4-fluorophenyl)-benzamide [Example E39]” the Ki was 2 nM.

“4-[[[5-tert-Butyl-2-(3-chlorophenyl)-2H-pyrazol-3-yl]-methyl-carbamoyl]-methyl]-N-(4-chlorophenyl)-benzamide [Example E30]” was tested, and the Ki was 3 nM.

“4-[[[5-tert-Butyl-2-(3-chlorophenyl)-2H-pyrazol-3-yl]-methyl-carbamoyl]-methyl]-N-(4-fluorophenyl)-benzamide [Example E37]” was tested, and the Ki was 5 nM.

Work on “4-[[[5-tert-Butyl-2-(3-chlorophenyl)-2H-pyrazol-3-yl]-methyl-carbamoyl]-methyl]-N-[4-(trifluoromethyl)-phenyl]-benzamide [Example E50]” yielded a Ki of 12 nM.

With “4-[[[5-tert-Butyl-2-(3-chlorophenyl)-2H-pyrazol-3-yl]-methyl-carbamoyl]amino]-2-chloro-benzoic acid [Example E55]” the “(f) Ki … inhibition (as a percentage)” value was 28% @ 5 μM.

In the case of “4-[[[5-tert-Butyl-2-(3-chlorophenyl)-2H-pyrazol-3-yl]-methyl-carbamoyl]amino]-2-chloro-benzoic acid methyl ester [Example E60]”, the Ki is reported as 19 nM.

With “4-[[[5-tert-Butyl-2-(3-chlorophenyl)-2H-pyrazol-3-yl]-methyl-carbamoyl]amino]-2-fluoro-N,N-dimethyl-benzamide [Example E12]” the Ki was 62 nM.

“4-[[[5-tert-Butyl-2-(3-chlorophenyl)-2H-pyrazol-3-yl]-methyl-carbamoyl]amino]-2-methoxy-benzamide [Example E7]” showed a Ki of 66 nM.

`COc1c(F)cc(C(C)C(=O)NCc2cc(C(C)(C)C)nn2-c2ccc(F)c(Cl)c2)cc1F` (stereo not shown) [Example A5, N-[[5-tert-Butyl-2-(3-chloro-4-fluoro-phenyl)-2H-pyrazol-3-yl]-methyl]-2-(3,5-difluoro-4-methoxy-phenyl)-propionamide] was tested, and the “(f) Ki (human being) [nM] Cap: result in words” value (shortened to “(f) Ki (human being) … in words”) was “AG”.

In the case of `CC(C)(C)c1cc(CNC(=O)Nc2cc(F)c(O)c(F)c2)n(-c2cccc(Cl)c2)n1` [Example A11, 1-[[5-tert-Butyl-2-(3-chlorophenyl)-2H-pyrazol-3-yl]-methyl]-3-(3,5-difluoro-4-hydroxy-phenyl)-urea], the “(f) Ki (human being) … in words” value is reported as “AG”.

`COc1ccc(NC(=O)NCc2cc(C(C)(C)C)nn2-c2cccc(Cl)c2)cc1OC` [Example A13, 1-[[5-tert-Butyl-2-(3-chlorophenyl)-2H-pyrazol-3-yl]-methyl]-3-(3,4-dimethoxyphenyl)-urea] was tested, and the “(f) Ki (human being) … in words” value was “AG”.

With `COc1cc(NC(=O)NCc2cc(C(F)(F)F)nn2-c2cccc(Cl)c2)ccc1O` [Example A15, 1-[[2-(3-Chlorophenyl)-5-(trifluoromethyl)-2H-pyrazol-3-yl]-methyl]-3-(4-hydroxy-3-methoxy-phenyl)-urea] the “(f) Ki (human being) … in words” value was “AG”.

`COc1ccc(NC(=O)NCc2cc(C(F)(F)F)nn2-c2cccc(Cl)c2)cc1O` [Example A16, 1-[[2-(3-Chlorophenyl)-5-(trifluoromethyl)-2H-pyrazol-3-yl]-methyl]-3-(3-hydroxy-4-methoxy-phenyl)-urea] was tested, and the “(f) Ki (human being) … in words” value was “AG”.

For `COCCOc1ccc(NC(=O)NCc2cc(C(C)(C)C)nn2-c2cccc(Cl)c2)cc1F` [Example A17, 1-[[5-tert-Butyl-2-(3-chlorophenyl)-2H-pyrazol-3-yl]-methyl]-3-[3-fluoro-4-(2-methoxy-ethoxy)-phenyl]-urea], the “(f) Ki (human being) … in words” value was “AG”.

With `CC(C)(C)c1cc(CNC(=O)Nc2ccc(OCC(O)CO)c(F)c2)n(-c2cccc(Cl)c2)n1` (stereo not shown) [Example A24, 1-[[5-tert-Butyl-2-(3-chlorophenyl)-2H-pyrazol-3-yl]-methyl]-3-[4-(2,3-dihydroxy-propoxy)-3-fluoro-phenyl]-urea] the “(f) Ki (human being) … in words” value was “AG”.

With `CC(C(=O)NCc1cc(C(C)(C)C)nn1-c1cccc(Cl)c1)c1ccc(CO)c(F)c1` (stereo not shown) [Example A32, N-[[5-tert-Butyl-2-(3-chlorophenyl)-2H-pyrazol-3-yl]-methyl]-2-[3-fluoro-4-(hydroxymethyl)-phenyl]-propionamide] the “(f) Ki (human being) … in words” value was “AG”.

In the case of `CC(C(=O)NCc1cc(C(F)(F)F)nn1-c1cccc(Cl)c1)c1ccc(CO)c(Cl)c1` (stereo not shown) [Example A36, 2-[3-Chloro-4-(hydroxymethyl)-phenyl]-N-[[2-(3-chlorophenyl)-5-(trifluoromethyl)-2H-pyrazol-3-yl]-methyl]-propionamide], the Ki is reported as 0.3 nM.

With `CC(C(=O)NCc1cc(C(C)(C)C)nn1-c1cccc(F)c1)c1ccc(CO)c(F)c1` (stereo not shown) [Example A37, N-[[5-tert-Butyl-2-(3-fluorophenyl)-2H-pyrazol-3-yl]-methyl]-2-[3-fluoro-4-(hydroxymethyl)-phenyl]-propionamide] the “(f) Ki (human being) … in words” value was “AG”.

In the case of `CC(C(=O)NCc1cc(C(C)(C)C)nn1-c1ccc(F)c(F)c1)c1ccc(CO)c(F)c1` (stereo not shown) [Example A39, N-[[5-tert-Butyl-2-(3,4-difluoro-phenyl)-2H-pyrazol-3-yl]-methyl]-2-[3-fluoro-4-(hydroxymethyl)-phenyl]-propionamide], the “(f) Ki (human being) … in words” value is reported as “AG”.

In the case of `CC(C(=O)NCc1cc(C(C)(C)C)nn1-c1ccc(F)c(Cl)c1)c1ccc(CO)c(F)c1` (stereo not shown) [Example A41, N-[[5-tert-Butyl-2-(3-chloro-4-fluoro-phenyl)-2H-pyrazol-3-yl]-methyl]-2-[3-fluoro-4-(hydroxymethyl)-phenyl]-propionamide], the “(f) Ki (human being) … in words” value is reported as “AG”.
